Columns and labels:
[1] = test system: metabolism of alcohol; conditions: administered with ethanol to rats; cited from earlier work
[2] = test system: cortisol, TSH, T4; test: Blood cortisol, TSH and T4 in healthy human volunteers, Example 5a; type: in vivo
Procedure: Blood levels of cortisol, thyroid stimulating hormone (TSH) and thyroxin, i.e. thyroid hormone T4 (T4) from standard EDTA blood sample were measured. 0-control and 2 day follow up measurement were conducted at approximately 08.55 am and the same day, 1.5 hour follow up, at 10:25 am. All measurements were conducted in “half fasting” state, i.e. half of the normal breakfast eaten 1.5 hours before the collection of the blood sample, and the other “half” immediately after 0-control measurement. First measurement without the DGA Activation served as the 0-control for both follow up measurements with the DGA Activation. First “DGA measurement” was conducted after 1.5 hours from 0-control (“fast effect”) and the second after 2 days (“persistent effect”). […] Last dose was 300 mg of D-glyceric acid mixed into water (or 430 mg of D-glyceric acid calcium salt dehydrate mixed into water), and otherwise the daily dose was 2*225 mg D-glyceric acid calcium salt dehydrate mixed into water. Male volunteers S1 and S9 weigh 75 kg and 80 kg respectfully.

[3] = 4-day healthy human nutritional test, blood bilirubin; type: in vivo; conditions: 5-6 mg/kg/twice a day
Procedure: S4 had already participated in 4-day healthy volunteer test with the DGA Activation. In that earlier non-acute DGA dosing experiment the last dose of D-glyceric acid mixed into water was received previous night, i.e. 10-12 hours before the blood test. In this test the positive effects of the DGA Activation in health/subclinical stress were observed. […] This was the case for all tested subjects including S1 in Examples 1b-1d (see Table 1e below).

[4] = 3-week safety feeding study with 80 rats; type: in vivo; conditions: three doses mixed into chow, 3 weeks; highest more than 100 times human doses
Procedure: Before initiating any clinical tests full proof of safety was received from 3 week in vivo feeding experiments with rats. This 3-week safety study with 80 rats was conducted in Finnish National Institute of Health with three different D-glyceric acid doses mixed into chow. […] Highest doses with rats in the safety study were more than 100 times the doses used for humans in any of the shorter tests presented here.

[5] = test system: primary human hepatocytes; test: Net ROS generation in human primary hepatocytes; type: cell-based; conditions: donors
Procedure: D-glycerate is coded as RH013001 in the graph. […] ARE -activation happens when Nrf2 detaches from cytosolic KEAP1 enzyme and moves to nucleus (SCHEME B).
FIG. 13b: Gene Expression results from Primary Hepatocytes after 48 h+2 h of the DGA Activation vs. 0-control. […] Combined test for PGC-1a yielded P-value of some 10%. Primary human hepatocytes were purchased from Celsis In Vitro Technologies (1450 South Rolling Road Baltimore, Md. 21227, USA). Primary hepatocytes were received from three different post mortem human donators. […] This is also the case for DOO.

[6] = test system: acute upper respiratory infection (nose and throat); test: Healing from acute upper respiratory infection in S1, Example 1c; type: in vivo, human
Text: After successful healing process in November 2014 (Example 1b), S1 was almost excited when they got acute upper respiratory infection when traveling abroad around New Year 2015. Symptoms: a virus infection in throat and rhinitis had lasted for three days before initiation of the DGA activation. S1 felt also feverish during this three-day period (unfortunately there was no thermometer around during the travel).
Administration on the fourth day of the infection: In the morning at 0940 am S1 took 2×250 mg of D-glyceric acid calcium salt dehydrate mixed into the water. Now, swelling and aching of the throat was quite substantial like had been the case already on the previous night, also some fever was felt.
At 0330 pm S1 took 2×180 mg of D-glyceric acid calcium salt mixed into water to keep the DGA Activation alive. Swelling had reduced a little but this could be due to circadian variation. Third dose of the day (2×180 mg) was received at 0915 pm. Throat continued to feel better towards the night, alleviation of the symptoms compared to the morning and to the previous night was significant.
Next morning at 0715 1×200 mg was received. […] However, some swelling in the throat remained but no pain. On top of the DGA Activation 1×500 mg of paracetamol was received at 0840 am, mimicking combination medication like e.g. Tylenol Cold.
Second 1×200 mg dose was received at 0200 pm. […]

SMILES: O=C(O)[C@H](O)CO [DGA, D-glyceric acid]
- metabolism of alcohol [1]: expedited the metabolism of alcohol
- TSH decline, fast effect ([2]; 1.5 hours): −24%
- decline of blood cortisol, fast effect ([2]; 1.5 hours after dose, both S1 and S9): more than 22%
- T4, average change from 0-control ([2]; S1 and S9): less than 1%
- decrease in blood cortisol ([2]; S1 and S9): 20-40%
- TSH decline ([2]; after 2 days): −13%
- S-Bil-Kj, 4 day change from zero control ([3]; subject S1): −17.4%
- S-Bil, 4 day change from zero control ([3]; subject S1, fasting blood, non-acute): −19.1%
- S-Bil, 4 day change from zero control ([3]; subject S2): −22.8%
- S-Bil-Kj, 4 day change from zero control ([3]; subject S2): −23.3%
- S-Bil, 4 day change from zero control ([3]; subject S3): −58.1%
- S-Bil-Kj, 4 day change from zero control ([3]; subject S3): −58.4%
- S-Bil, 4 day change from zero control ([3]; subject S4): −12.6%
- S-Bil-Kj, 4 day change from zero control ([3]; subject S4): −8.8%
- adverse health effects (feed intake, body weight development) [4]: No adverse health effects were noticed
- net ROS generation [5]: declined for both JGM and CDP statistically very significantly
- fever next morning ([6]; S1, morning after first day of dosing): No fever was observed
- time to conquer the acute upper respiratory infection ([6]; S1, started on fourth day of infection, 2×250 mg then 2×180 mg doses): 12 to 48 h
